The text below walks through data of publication PMC11423540, “Synthesis and biological evaluation of ortho-phenyl phenylhydroxamic acids containing phenothiazine with improved selectivity for class IIa histone deacetylases” (Journal of Enzyme Inhibition and Medicinal Chemistry, 2024).

The test system of data set [1] is SCC2095 cells. In words: Annexin V-FITC/PI flow cytometric apoptosis analysis. In kind it is cell-based, human. The settings on record: for apoptosis rate: 48 h. The procedure: Cells (2 × 10^5) were treated with tested compounds in 6-well plates for 24 h or 48 h, then washed with ice-cold PBS twice and harvested with trypsin. Cells were incubated with 5 µL Annexin V- FITC/PI (BD Pharmingen, San Diego) for 15 min in the dark condition. Then, the cells were measured by BD FACSCanto flow cytometer (BD, Franklin Lakes, NJ). For ROS determination, DMSO or H2O2 or compound 7 g-treated cells were stained with the ROS probe (DCFH-DA; 5 µM) and detected the DCFH-DA fluorescence.
(In flow cytometry, cells or beads pass a laser one at a time.)

In another data set the target is T1, HDAC6 (Homo sapiens, UniProt Q9UBN7).
T1 sequence (Q9UBN7 1-1215): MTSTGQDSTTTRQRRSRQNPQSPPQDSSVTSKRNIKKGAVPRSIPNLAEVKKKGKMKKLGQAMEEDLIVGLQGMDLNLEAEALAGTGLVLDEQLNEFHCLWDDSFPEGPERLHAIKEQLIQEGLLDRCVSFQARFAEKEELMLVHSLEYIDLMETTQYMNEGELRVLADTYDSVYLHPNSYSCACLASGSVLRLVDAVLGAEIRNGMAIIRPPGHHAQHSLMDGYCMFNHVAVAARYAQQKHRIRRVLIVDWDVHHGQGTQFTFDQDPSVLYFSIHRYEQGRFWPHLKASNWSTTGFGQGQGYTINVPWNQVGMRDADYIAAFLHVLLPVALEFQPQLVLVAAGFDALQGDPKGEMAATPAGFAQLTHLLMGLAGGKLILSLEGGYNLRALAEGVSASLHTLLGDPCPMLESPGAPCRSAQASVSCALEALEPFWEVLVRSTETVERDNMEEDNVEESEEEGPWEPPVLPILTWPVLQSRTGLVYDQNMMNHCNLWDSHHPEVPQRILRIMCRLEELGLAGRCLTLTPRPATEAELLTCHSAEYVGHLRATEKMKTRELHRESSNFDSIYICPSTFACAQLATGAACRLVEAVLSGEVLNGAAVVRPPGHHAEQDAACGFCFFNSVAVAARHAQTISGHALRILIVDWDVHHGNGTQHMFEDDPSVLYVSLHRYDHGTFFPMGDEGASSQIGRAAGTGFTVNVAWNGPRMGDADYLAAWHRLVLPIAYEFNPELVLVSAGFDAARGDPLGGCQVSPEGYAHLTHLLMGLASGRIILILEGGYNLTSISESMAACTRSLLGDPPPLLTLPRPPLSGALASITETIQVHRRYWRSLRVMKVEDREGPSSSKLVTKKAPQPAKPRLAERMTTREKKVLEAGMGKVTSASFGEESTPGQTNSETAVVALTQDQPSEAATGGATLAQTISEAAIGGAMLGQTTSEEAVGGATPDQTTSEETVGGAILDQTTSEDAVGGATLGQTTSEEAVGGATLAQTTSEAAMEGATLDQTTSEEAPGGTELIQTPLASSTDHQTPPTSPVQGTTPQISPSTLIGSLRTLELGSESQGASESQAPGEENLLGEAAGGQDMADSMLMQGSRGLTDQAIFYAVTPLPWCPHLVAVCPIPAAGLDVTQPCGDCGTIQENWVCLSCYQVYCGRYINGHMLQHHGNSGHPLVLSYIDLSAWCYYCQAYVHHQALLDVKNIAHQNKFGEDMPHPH
In words: HDAC inhibition assay, HDAC6.

The test system of another data set is HDAC4 protein. Put plainly: Surface plasmon resonance binding to HDAC4. The settings on record: Figure S1. The procedure:
HDAC4 protein was crosslinked by EDC (1-ethyl-3-(3-dimethylaminopropyl) carbodiimide) and NHS (N-hydroxysuccinimide). The crosslinking reagent and protein were co- incubated 30 minutes at 25°C.
Binding reactivity to mutant HDAC4 protein was performed by SPR (OpenSPR, Nicoyalife). The recombinant HDAC4 protein was crosslinked by EDC/NHC regent, followed by dilution to a concentration of 50 μg/mL with PBS and immobilized onto a amine sensor chip (Nicoyalife). The analytes were tested at various dilutions in PBST, and the flow rate was maintained at 20 μL/min during analysis. The amine sensor chip was regenerated with 10 mM glycine−HCl, pH2.5. The results were analyzed using TraceDrawer software (Nicoyalife).
A general note: In SPR one partner is held on a chip, and binding of the other changes the refractive index at the surface.

The test system of another data set is HeLa nuclear HDACs. Put plainly: HDAC inhibition assay, HeLa nuclear extract (mixture of class I HDACs 1, 2, and 3). The settings on record: read-out: IC50 HeLa nuclear HDACs, Boc-Lys-(AMC) substrate.
Data set [2] has as its system SCC2095 cells. Put plainly: Cell viability (MTT) assay, SCC2095. Type of data set: cell-based. The settings on record: Homo sapiens, 48 h, human oral cancer cells, read-out: IC50 of cytotoxicity SCC2095. The procedure: Human breast cancer MDA-MB-231 cells and gastric cancer SCM-1 cells were purchased from the American Type Culture Collection (Manasas, VA, USA). SCC2095 human oral cancer cells were kindly provided by Professor Susan R. Mallery (The Ohio State University).
(§1) To assess cell viability, cells were seeded in three replicates into 96-well plates at a density of 5×10^3/well for 24 h following incubation with compounds at the indicated concentrations. Then, cell viability was assessed with 3–(4,5-dimethylthiazol-2-yl)-2,5-diphenyltetrazolium bromide (MTT) solution (0.5 mg/mL) for 4h as described previously. After removing the medium, 200 µL of DMSO was added, and then the absorbance was measured at 570 nm using a plate reader (BMG LABTECH, Germany).

Data set [3] in a line: Cell viability (MTT) assay, normal human lung fibroblasts. Type of data set: cell-based. The settings on record: normal human lung fibroblasts (NHLF, CC-2512); normal human lung fibroblast cells; read-out: IC50 of cytotoxicity against normal cells.
Description: Human breast cancer MDA-MB-231 cells and gastric cancer SCM-1 cells were purchased from the American Type Culture Collection (Manasas, VA, USA). SCC2095 human oral cancer cells were kindly provided by Professor Susan R. Mallery (The Ohio State University). Normal human lung fibroblasts (NHLFs; CC-2512) were purchased from the Lonza (Walkersville, MD, USA). SCM-1 cells were maintained in RPMI-1640 medium (Invitrogen, Carlsbad, CA, USA); MDA-MB-231 and SCC2095 cells were maintained in DMEM/F12 (Invitrogen); and NHLFs were maintained in FGM™-2 medium (Lonza) with 2% serum, supplemented with 10% heat-inactivated foetal bovine serum (FBS; Gibco, Grand Island, NY, USA). All cells were cultured at 37 °C in a humidified incubator containing 5% CO2 and 95% relative humidity.
as §1

The target in another data set is HDAC9 (Homo sapiens, UniProt Q9UKV0). In words: HDAC inhibition assay, HDAC9.

The structures appear in SMILES notation. Some results are limits rather than exact numbers.

Chain of HDAC9 (Q9UKV0 whole entry): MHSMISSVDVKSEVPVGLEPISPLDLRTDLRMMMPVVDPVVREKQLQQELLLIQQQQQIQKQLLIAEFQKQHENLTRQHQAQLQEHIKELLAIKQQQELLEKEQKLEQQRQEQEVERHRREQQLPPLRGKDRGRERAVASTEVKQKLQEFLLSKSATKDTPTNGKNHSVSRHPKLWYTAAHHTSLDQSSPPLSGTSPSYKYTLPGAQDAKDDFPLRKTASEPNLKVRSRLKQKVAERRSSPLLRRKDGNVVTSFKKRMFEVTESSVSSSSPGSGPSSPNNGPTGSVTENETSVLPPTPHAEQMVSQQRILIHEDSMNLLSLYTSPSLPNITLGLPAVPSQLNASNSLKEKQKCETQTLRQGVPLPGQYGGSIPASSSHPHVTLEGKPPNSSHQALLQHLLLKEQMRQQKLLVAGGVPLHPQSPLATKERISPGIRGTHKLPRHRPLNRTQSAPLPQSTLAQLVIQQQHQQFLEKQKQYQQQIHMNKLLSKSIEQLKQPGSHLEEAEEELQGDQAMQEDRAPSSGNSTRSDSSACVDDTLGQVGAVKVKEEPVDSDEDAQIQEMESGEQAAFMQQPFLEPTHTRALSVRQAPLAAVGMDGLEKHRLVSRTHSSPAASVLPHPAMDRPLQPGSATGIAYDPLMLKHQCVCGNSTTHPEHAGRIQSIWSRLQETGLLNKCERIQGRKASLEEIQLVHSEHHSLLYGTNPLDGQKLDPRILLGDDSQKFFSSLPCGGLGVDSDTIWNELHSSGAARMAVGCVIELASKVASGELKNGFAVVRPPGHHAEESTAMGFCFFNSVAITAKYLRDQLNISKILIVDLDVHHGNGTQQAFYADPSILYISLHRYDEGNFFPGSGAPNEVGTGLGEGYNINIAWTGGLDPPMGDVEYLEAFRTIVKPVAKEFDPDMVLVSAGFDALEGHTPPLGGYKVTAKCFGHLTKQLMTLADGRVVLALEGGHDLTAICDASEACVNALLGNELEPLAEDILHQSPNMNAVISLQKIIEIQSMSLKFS

With `NC(=NO)c1ccc2c(c1)N(Cc1ccc(C(=O)NO)c(-c3ccccc3)c1)c1ccccc1S2` [Compound 7g, N-Hydroxy-4-[2-(N’-hydroxycarbamimidoyl)-10H-phenothiazin-10-yl]methyl-2-phenylbenzamide], the apoptosis rate is reported as 29.2% in the data set with SCC2095 cells [1] (1 µM); 35.9% in the data set on SCC2095 cells [1] (2.5 µM); 44.4% in the data set with SCC2095 cells [1] (5 µM); 78.2% in the data set with SCC2095 cells [1] (7.5 µM); 87.1% in the data set on SCC2095 cells [1] (10 µM). Moreover, the “percentage of apoptotic cells” value in the data set with SCC2095 cells [1] (10 µM, 24 h) is 83.6%. In addition, the 50% inhibitory concentration (IC50) – broadly, the concentration needed to halve the response being measured – against HDAC6 is 0.97 ± 0.05 µM; in the data set with HeLa nuclear HDACs, more than 40 µM; in the data set on SCC2095 cells [2] it was 3 ± 0.3 µM; in data set [3] it was 8 µM; against HDAC9, 0.04 ± 0.001 µM. The “SPR binding to HDAC4 protein” value with HDAC4 protein is recorded as “can bind to HDAC4 protein”.
